From patent publication US20230114865A1, “PHENYL PYRROLE AMINOGUANIDINE SALTS AND FORMULATIONS” (SYNACT PHARMA APS, priority 2021, published 2023)
Read-outs that look alike come from different tables or passages of the source. Marks after values point to notes of the source that are not given here.

Columns and labels:
[1] = Solubility of additional AP1189 salts, HCl/KCl buffer 0.5 M pH 1.2; type: physicochemical
[2] = system: melanocytes; conditions: cited from earlier work
[3] = system: peritonitis; conditions: in vivo; cited from earlier work
[4] = system: MC1R; conditions: cited from earlier work
[5] = system: experimental inflammatory arthritis; conditions: in vivo; cited from earlier work
[6] = Stability of AP1189 in Ora-Sweet and Ora-Sweet SF, HPLC; type: physicochemical; conditions: 20 mg/ml suspension, pH 4.25, T=0
Description: Stability of AP1189 in Ora-Sweet and Ora-Sweet SF was tested.

[7] = Forced degradation studies on AP1189 at low pH; type: physicochemical; conditions: within 24 hours
[8] = Chemical stability of AP1189 suspension in Syrspend SF Alka, HPLC; type: physicochemical; conditions: room temp.; for Total Impurities (% Area) Initial / Total Impurities (% Area) T = 30 min / Total Impurities (% Area) T = 60 min / Total Impurities (% Area) T = 90 min: Syrspend SF Alka
Description: An experiment was conducted at lowest (15 mg) and highest (400 mg) dose strength to assess the dispersability and physical stability of the suspension. Chemical stability of the suspension was assessed by HPLC for 90 minutes at every 30 minutes interval.

[9] = system: MC3R; conditions: cited from earlier work
[10] = system: primary macrophages; conditions: cited from earlier work
[11] = buffer pH 1.2, fully dissolved, succinate 0.5 h
Description: As a result, the pH was adjusted to 1.2 with concentrated hydrochloric acid in both solutions. Both sample preparations were diluted 500 times with the sample diluent (acetonitrile:water 1:1 v/v).

Molecule: CC1(C)C2CCC1(CS(=O)(=O)O)C(=O)C2 (stereo not shown)
- Solubility HCI/KCI Buffer 0.5 M pH 1.2 [1]: <15 mM

Molecule: NC(N)=N/N=C/C=C/c1cccn1-c1ccccc1[N+](=O)[O-] [AP1189, (E)-N-[1-(2-nitrophenyl)-1-H-pyrrole-2-yl-allylideneamino]-guanidine]
- melanogenesis in melanocytes [2]: no melanogenesis was induced
- actions in peritonitis [3]: elicit anti-inflammatory actions
- ERK1/2 phosphorylation [4]: cause ERK1/2 phosphorylation
- canonical cAMP generation [4]: does not induce canonical cAMP generation
- characterisation at MC1R [4]: biased agonist
- macroscopic and histological parameters of joint disruption [5]: significantly reduce
- AP1189 degradation in Ora-Sweet SF, Initial [6]: <LOQ
- degradation at low pH [7]: at least 20%
- stability in Syrspend SF Alka (in words) ([8]; 90 minutes): stable
- Total Impurities (% Area) Initial ([8]; dose strength 15 mg): 0.89* % Area
- Total Impurities (% Area) T = 30 min ([8]; dose strength 15 mg): 0.94* % Area
- Total Impurities (% Area) T = 60 min ([8]; dose strength 15 mg): 0.88* % Area
- Total Impurities (% Area) T = 90 min ([8]; dose strength 15 mg): 0.87* % Area
- Total Impurities (% Area) Initial ([8]; dose strength 400 mg): 0.45 % Area
- Total Impurities (% Area) T = 30 min ([8]; dose strength 400 mg): 0.45 % Area
- Total Impurities (% Area) T = 60 min ([8]; dose strength 400 mg): 0.45 % Area
- Total Impurities (% Area) T = 90 min ([8]; dose strength 400 mg): 0.45 % Area
- ERK1/2 phosphorylation [9]: cause ERK1/2 phosphorylation
- canonical cAMP generation [9]: does not induce canonical cAMP generation
- characterisation at MC3R [9]: biased agonist
- cytokine release in macrophages [10]: reduce cytokine release
- efferocytosis in primary macrophages [10]: proefferocytic effect

Molecule: (E)-N-[1-(2-nitrophenyl)-1-H-pyrrole-2-yl-allylideneamino]-guanidinium acetate [AP1189 acetate]
- Determined concentration in pH 1.2 samples ([11]; acetate 5 h): >223 mg/mL
- Determined concentration in pH 1.2 samples ([11]; time in cell: acetate 5 h): >617 mM (5 h)
